Laboratory results: patent publication US6642177B1, “Sarcoslnates as glufosinate adjuvants” (Hampshire Chemical Corp., priority 1998, dated 2003)

Key:
Assay type in all cases: in vivo
[1] = test system: Setia = Foxtail., Giant - setaria; assay: % control of giant foxtail 27 days after treatment; details: rate 0.32 lbs. ai/A
[2] = test system: Porol = Purslane, Common - Portulaca oleraca; assay: % control of common purslane 27 days after treatment; details: rate 0.32 lbs. ai/A
[3] = test system: Amabl = Pigweed, Prostrate - Amaranthus blitoides; assay: % control of prostrate pigweed 27 days after treatment; details: rate 0.32 lbs. ai/A
[4] = test system: Polpy = Smartweed, Pennsylvania - Polygonium pensylvanicum; assay: % control of Pennsylvania smartweed 27 days after treatment; details: rate 0.32 lbs. ai/A
[5] = test system: Setiu + Foxtail, Yellow - Sataria Leutescens; assay: % control of yellow foxtail 27 days after treatment; details: rate 0.32 lbs. ai/A
[6] = test system: Plant Species (Setia, Porol, Amabl, Polpy, Sotlu); nuisance weeds; assay: % control over the five plant species (total, average) 27 days after treatment; details: rate 0.32 lbs. ai/A
[7] = test system: glufosinate tolerant field corn variety Pioneer 34A55; assay: Phytotoxicity rating on glufosinate tolerant field corn (chlorosis, necrosis, abnormal growth); details: 1.46 Lbs ai/acre, 10 ml into the whorl
Method: Seeds were germinated in 4 inch pots and maintained for one month with regular watering and temperatures to simulate field conditions. […] Each treatment was replicated four times in a randomized complete block design. […] The volume of 10 ml was selected to fill the whorl of the largest plant in the study, all others were filled to running over.
An application volume of 15 gal/acre was used to determine the mix concentration used.
The treatments were evaluated for phytotoxicity in the form of chlorosis, necrosis and abnormal growth by visually inspecting each plant. When damage was present, each plant was given a damage rating from 0 to 10 with 0 indicating no effect and 10 indicating death.

2-amino-4-(hydroxymethyl phosphinyl) butanoic acid [Glufosinate]
% Control 27 Days After Treatment, Setia [1]: 61.67%
% Control 27 Days After Treatment, Porol [2]: 78.33%
% Control 27 Days After Treatment, Amabl [3]: 73.33%
% Control 27 Days After Treatment, Polpy [4]: 81.67%
% Control 27 Days After Treatment, Sotlu [5]: 60.00%
% Control 27 Days After Treatment, Average ([6]; average over five plant species): 71.00%
% Control 27 Days After Treatment, Total ([6]; sum over five plant species): 355.00%
Ratings 20 days after treatment (damage rating 0 to 10, 0 no effect, 10 death) [7]: 0.8 b
